Read-outs that look alike come from different tables or passages of the source. Values belong to the compound of their own block, whether it stands above or below them. Square brackets hold non-standard residues; d marks the D form. Peptide text beside a SMILES is read from it. * marks the point of attachment. pNA = O=[N+]([O-])c1ccc(N*)cc1; Abu = CC[C@H](N)C(=O)O
Key:
bovine thrombin = target: T1, bovine thrombin (Bos taurus, UniProt P00735); assay: metaprobe hydrolysis in solution by purified thrombin; type: biochemical; conditions: 0.5 NIH unit per ml, pH 8.4, 37° C., 15 minutes
T1 construct: Freshly prepared solutions of bovine thrombin and bovine plasmin, from reconstituted lyophilized powders (Sigma); purchased Sigma
Procedure: (§1) The suitability of substrates I-VI was tested by the enzymatic assay protocol of Svendsen. Freshly prepared solutions of bovine thrombin and bovine plasmin, from reconstituted lyophilized powders (Sigma) were prepared in tris-imidazole buffer at pH 8.4 to deliver nominally 0.5 NIH unit per ml of thrombin and 1 WHO unit of plasmin. After preincubation for 5 minutes at 37° C., 0.25 ml of an 0.5 mMolar solution of each substrate in the same aqueous buffer was added and the separate reactions incubated for 15 minutes at the same temperature. Reaction was stopped by addition of 1:9 concentrated HCl:methanol. Concentration of the supernatant, ion exchange chromatography on Dowex-50, with 2N ammonia water eluant, as a further desalting and deproteinizing step, afforded the amino acid fraction resulting from the enzymatic hydrolysis of the metaprobes. The concentration of p-aminobenzoic[1-^13C] acid (with tetradeutero isotopolog as internal quantitation standard) and of L-2-aminobutyric[1-^13C] acid (with pentadeutero isotopolog as internal quantitation standard) were then analyzed by isotope dilution GC/MS using the N-trifluoroacetyl propyl ester derivatives and the total hydrolytic conversion expressed as […]

bovine plasmin = target: T2, bovine plasmin (Bos taurus, UniProt P06868); assay: metaprobe hydrolysis in solution by purified plasmin; type: biochemical; conditions: 1 WHO unit, pH 8.4, 37° C., 15 minutes
T2 construct: Freshly prepared solutions of bovine thrombin and bovine plasmin, from reconstituted lyophilized powders (Sigma); purchased Sigma
Procedure: as §1

thrombin = target: T3, thrombin (Rattus norvegicus, UniProt P18292); assay: thrombin metaprobe hydrolysis in whole blood, septic rat model; type: biochemical
T3 construct: from tissue; host or cells: unfractionated whole blood of control and septic rats

thrombin and plasmin = assay: net coagulant potential (NCP) in whole blood, septic rat model; type: biochemical
DPPIV = target: T4, DPPIV (Rattus norvegicus, UniProt P14740); assay: plasma enzyme activity towards DPPIV substrates in septic rat model; type: biochemical, Sprague-Dawley rats
T4 construct: from tissue; host or cells: plasma of control and septic rats
Procedure: (§2) Accordingly, ten male Sprague-Dawley rats, weighing approximately 300 gr., were injected with 3.5 mg/kg of GPA (prepared by sterile ultrafiltration in saline) and placed into metabolic cages for ^13CO2 collection (by alkaline trapping in seven 0.5 hour increments), in general as described by Vann et al. A blood draw of 0.4 ml was taken prior to the tracer administration to provide a baseline plasma titer for in vivo DPPIV activity. The following day, the rats were separated into a control panel and a test panel. Each of the three animals in the test panel was made septic (on Day 0) by intravenous (tail vein) adminstration of E. coli. Three control animals were sham injected with saline, and all were maintained in separate cages.
(§3) On day 2 and 6, and after a […], the administration of the “breath test” metaprobe and ^13CO2 collection was repeated. Equal aliquots of plasma were assayed for enzyme activity by spectrophotometry in two ways: a) using GP4NA (FIG. 16, structure I), a traditional and confirmatory approach, and b) using GPPaba (FIG. 16, structure III with R1 being the protonated free acid) by GC/MS quantitation of the p-aminobenzoic[1-^13C] acid (Paba, FIG. 16, structure IV) derived hydrolytically. The isotopic enrichment of the seven breath collections was measured by isotope ratio mass spectrometry, of the gas liberated after phosphoric acid protonation. The cumulative extent of metaprobe metabolism, as a per cent of dose taking into account the total CO2 production rate of each animal (Mohan et al.) was then calculated.
(§4) Also, over the 7 day experiment, the specific activity of plasma towards GP4NA in the control group averaged 29±6 nMol/min/ml while the septic titer rose to 43±7 and 49±6 on days two and six, respectively. The corresponding values of plasma activity towards GPPaba in the control group averaged 18±7 nMol/min/ml while the septic titer rose to 55±17 and 30±6 on days two and six, respectively. A “sham” breath test using 1.5 mg/kg administration of L-2-aminobutyric[1-^13C] acid in saline on day 3 of the experiment confirmed that oxidation of the release tag was similar in control and test groups, affording a cumulative oxidation of 65±8.3 and 72±9.4 per cent of dose recovery in 3 hours, respectively.

[1] = sham breath test with free core tracer in septic rat model; type: in vivo, Sprague-Dawley rats; conditions: 1.5 mg/kg in saline, day 3, in 3 hours
Procedure: as §4

[2] = target: T5, Dipeptidyl Peptidase IV (DPPIV/CD26) (Rattus norvegicus, UniProt P14740); assay: DPPIV metaprobe breath test in the septic rat; type: in vivo, Sprague-Dawley rats; conditions: 3.5 mg/kg injected
T5 construct: from tissue; host or cells: whole rat in vivo (injected dose, 13CO2 collection)
Procedure: as §2, §3

[3] = test system: nitric oxide synthase (NOS)
Text: These studies constitute part of a continuing series intended to extend the protocols initiated by Castillo et al. (1996) and depend on intravenous metaprobe administration and mass spectral analysis of the resulting analytes extracted from plasma.

[4] = target: T6, Dipeptidyl peptidase IV (DPPIV) (Sus scrofa, UniProt P22411); assay: in-vitro Michaelis-Menten assay with dipeptidyl peptidase reference enzyme; type: biochemical; conditions: read-out: apparent Km
T6 construct: purchased Sigma-Aldrich D7052
Text: Dipeptidyl peptidase reference enzyme was purchased from Sigma-Aldrich (D7052) and assayed by the standard Michaelis-Menten method described in similar studies by Barth and co-workers (Heins, et al.; Rahfeld, et al.). […] Hydrolysis of the latter was quantitated by isotope dilution GC/MS of the N-trifluoroacetyl-propyl ester, using L-2-aminobutyric[^2H5] acid as the internal standard.

Aminopeptidase P (APP) [5] = conditions: Human BAL
Aminopeptidase P (APP) [6] = conditions: Rat Plasma
plasmin = target: T7, plasmin (Rattus norvegicus, UniProt Q01177); assay: plasmin metaprobe hydrolysis in whole blood, septic rat model; type: biochemical
T7 construct: from tissue; host or cells: unfractionated whole blood of control and septic rats

[7] = control group, average over the 7 day experiment

T2 sequence (P06868 584-812 limits assumed): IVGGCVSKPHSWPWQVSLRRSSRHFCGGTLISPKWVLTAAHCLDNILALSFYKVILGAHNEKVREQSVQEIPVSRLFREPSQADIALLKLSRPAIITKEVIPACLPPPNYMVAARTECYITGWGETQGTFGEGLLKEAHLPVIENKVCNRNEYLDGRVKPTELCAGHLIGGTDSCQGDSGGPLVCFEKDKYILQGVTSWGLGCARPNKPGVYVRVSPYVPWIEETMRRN
T2 sequence (P06868 104-583 limits assumed): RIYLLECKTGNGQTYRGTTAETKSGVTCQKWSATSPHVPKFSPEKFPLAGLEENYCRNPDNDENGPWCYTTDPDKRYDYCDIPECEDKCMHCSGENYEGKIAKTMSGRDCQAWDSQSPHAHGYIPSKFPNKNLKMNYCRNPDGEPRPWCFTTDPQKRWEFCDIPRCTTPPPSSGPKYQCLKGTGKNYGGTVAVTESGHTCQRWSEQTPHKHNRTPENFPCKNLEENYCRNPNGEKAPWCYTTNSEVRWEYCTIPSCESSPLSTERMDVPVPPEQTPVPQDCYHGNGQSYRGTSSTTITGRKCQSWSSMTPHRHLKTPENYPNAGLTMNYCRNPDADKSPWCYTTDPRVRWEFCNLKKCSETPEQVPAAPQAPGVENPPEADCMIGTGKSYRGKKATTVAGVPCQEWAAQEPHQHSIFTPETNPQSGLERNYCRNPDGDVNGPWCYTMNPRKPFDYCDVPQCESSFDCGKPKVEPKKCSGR
T5 sequence (P14740 whole entry): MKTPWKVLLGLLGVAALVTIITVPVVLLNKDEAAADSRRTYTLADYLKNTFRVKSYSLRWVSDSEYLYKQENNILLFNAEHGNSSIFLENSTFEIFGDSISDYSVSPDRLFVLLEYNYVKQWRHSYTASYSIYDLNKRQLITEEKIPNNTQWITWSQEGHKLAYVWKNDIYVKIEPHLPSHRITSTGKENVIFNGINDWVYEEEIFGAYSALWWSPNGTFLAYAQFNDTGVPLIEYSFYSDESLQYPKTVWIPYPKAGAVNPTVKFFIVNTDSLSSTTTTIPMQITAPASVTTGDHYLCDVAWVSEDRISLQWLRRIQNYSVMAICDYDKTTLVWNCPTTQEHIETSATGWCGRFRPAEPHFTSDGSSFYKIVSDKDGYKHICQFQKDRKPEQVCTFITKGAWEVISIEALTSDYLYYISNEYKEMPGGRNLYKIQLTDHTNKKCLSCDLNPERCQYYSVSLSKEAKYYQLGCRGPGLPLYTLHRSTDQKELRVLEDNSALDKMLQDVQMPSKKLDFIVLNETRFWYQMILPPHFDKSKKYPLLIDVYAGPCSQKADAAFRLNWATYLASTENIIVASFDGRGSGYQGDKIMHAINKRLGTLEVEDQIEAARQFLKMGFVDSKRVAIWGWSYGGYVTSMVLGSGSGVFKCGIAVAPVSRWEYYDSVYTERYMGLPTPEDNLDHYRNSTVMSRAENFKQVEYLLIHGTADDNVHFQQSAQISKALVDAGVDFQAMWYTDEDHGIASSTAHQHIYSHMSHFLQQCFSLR
T4 sequence (P14740 37-767 limits assumed): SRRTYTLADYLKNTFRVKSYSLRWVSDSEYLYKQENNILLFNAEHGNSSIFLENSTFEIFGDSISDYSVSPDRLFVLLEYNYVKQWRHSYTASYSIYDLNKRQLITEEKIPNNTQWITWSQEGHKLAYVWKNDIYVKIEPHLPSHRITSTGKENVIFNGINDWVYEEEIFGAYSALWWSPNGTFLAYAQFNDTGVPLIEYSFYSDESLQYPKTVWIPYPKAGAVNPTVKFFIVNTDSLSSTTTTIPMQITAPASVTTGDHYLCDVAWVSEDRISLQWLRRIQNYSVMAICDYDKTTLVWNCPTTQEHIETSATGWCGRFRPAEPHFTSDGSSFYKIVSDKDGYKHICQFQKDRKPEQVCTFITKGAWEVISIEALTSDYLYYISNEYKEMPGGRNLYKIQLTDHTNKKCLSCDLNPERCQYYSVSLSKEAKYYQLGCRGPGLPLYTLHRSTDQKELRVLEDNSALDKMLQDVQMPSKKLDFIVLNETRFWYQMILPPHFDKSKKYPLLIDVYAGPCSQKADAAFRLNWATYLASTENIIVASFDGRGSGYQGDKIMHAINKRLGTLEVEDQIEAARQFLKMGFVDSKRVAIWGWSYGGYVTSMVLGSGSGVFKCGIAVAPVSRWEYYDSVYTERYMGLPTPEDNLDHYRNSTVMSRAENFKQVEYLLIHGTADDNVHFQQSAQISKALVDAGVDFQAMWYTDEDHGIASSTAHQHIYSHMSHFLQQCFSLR
T7 sequence (Q01177 582-812 limits assumed): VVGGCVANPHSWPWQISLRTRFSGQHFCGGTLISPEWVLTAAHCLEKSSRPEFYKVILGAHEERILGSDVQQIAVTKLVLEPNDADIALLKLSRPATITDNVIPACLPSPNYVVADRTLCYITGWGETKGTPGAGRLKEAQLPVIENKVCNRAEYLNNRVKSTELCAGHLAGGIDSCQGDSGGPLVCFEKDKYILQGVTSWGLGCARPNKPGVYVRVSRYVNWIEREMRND
T7 sequence (Q01177 97-581 limits assumed): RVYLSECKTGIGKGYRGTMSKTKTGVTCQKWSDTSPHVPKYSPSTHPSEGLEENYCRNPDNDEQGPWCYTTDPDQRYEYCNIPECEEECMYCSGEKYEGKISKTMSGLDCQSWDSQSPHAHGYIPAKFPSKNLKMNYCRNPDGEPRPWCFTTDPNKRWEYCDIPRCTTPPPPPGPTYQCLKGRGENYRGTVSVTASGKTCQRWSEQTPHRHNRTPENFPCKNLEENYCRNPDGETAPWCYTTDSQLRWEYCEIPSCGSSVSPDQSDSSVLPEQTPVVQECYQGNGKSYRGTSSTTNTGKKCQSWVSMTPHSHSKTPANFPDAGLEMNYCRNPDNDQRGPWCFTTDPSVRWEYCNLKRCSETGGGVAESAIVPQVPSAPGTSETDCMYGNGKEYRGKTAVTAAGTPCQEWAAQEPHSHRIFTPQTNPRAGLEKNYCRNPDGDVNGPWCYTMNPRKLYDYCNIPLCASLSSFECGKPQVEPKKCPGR
T6 sequence (P22411 whole entry): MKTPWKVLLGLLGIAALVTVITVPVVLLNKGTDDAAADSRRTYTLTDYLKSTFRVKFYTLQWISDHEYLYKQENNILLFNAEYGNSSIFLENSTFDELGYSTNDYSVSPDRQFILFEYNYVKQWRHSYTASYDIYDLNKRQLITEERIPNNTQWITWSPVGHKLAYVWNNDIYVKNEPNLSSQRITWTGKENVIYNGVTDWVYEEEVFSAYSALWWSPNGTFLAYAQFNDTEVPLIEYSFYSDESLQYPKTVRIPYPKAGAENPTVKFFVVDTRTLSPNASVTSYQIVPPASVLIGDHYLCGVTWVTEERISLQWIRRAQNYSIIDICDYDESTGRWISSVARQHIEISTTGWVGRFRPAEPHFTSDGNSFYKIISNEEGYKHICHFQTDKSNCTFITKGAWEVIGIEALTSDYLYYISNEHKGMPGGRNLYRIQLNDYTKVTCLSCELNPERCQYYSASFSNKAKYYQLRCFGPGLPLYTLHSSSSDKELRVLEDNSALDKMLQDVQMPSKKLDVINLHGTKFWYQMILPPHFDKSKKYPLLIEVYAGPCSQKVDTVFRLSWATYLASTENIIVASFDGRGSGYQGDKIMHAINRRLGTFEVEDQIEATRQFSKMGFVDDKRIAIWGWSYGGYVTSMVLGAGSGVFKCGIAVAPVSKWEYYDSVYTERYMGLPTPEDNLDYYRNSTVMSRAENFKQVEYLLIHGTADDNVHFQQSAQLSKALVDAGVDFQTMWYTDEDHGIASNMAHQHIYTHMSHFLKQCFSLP

Compound: CCO[13C](=O)[C@H](CC)NC(=O)[C@H](CCCNC(=N)N)NC(=O)[C@@H]1CCCN1C(=O)CNC(C)=O [Substrate IV, N-acetyl-glycyl-L-prolyl-L-arginyl-L-2-aminobutyric[1-^13C] acid, ethyl ester]
- Product formed, Thrombin (bovine thrombin): 7.8 nmol/min/mL
- Product formed, Plasmin (bovine plasmin): 3.1 nmol/min/mL
- Percent of Metaprobe Dose Metabolized (thrombin; Control, Day 0): 22 ± 9%
- Percent of Metaprobe Dose Metabolized (thrombin; Septic, Day 2): 76 ± 15%
- Percent of Metaprobe Dose Metabolized (thrombin; Septic, Day 6): 39 ± 12%
- Percent of Metaprobe Dose Metabolized (thrombin; Septic, Day 10): 25 ± 10%
- NCP, net coagulant potential (difference between metaprobe IV and VI) (thrombin and plasmin; Control, Day 0): 11 ± 10%
- NCP, net coagulant potential (difference between metaprobe IV and VI) (thrombin and plasmin; Septic, Day 2): 62 ± 17%
- NCP, net coagulant potential (difference between metaprobe IV and VI) (thrombin and plasmin; Septic, Day 6): −13 ± 21%
- NCP, net coagulant potential (difference between metaprobe IV and VI) (thrombin and plasmin; Septic, Day 10): 2 ± 15%

- specific activity of plasma towards substrate (DPPIV; [7]): 18 ± 7 nmol/min/mL
- specific activity of plasma towards substrate (DPPIV; septic, day six): 30 ± 6 nmol/min/mL
- specific activity of plasma towards substrate (DPPIV; septic, day two): 55 ± 17 nmol/min/mL
Compound: gylcyl-prolyl-p-aminobenzoic[1-^13C] acid [GPPaba]

- cumulative oxidation, per cent of dose recovery ([1]; control group): 65±8.3 per cent of dose
- cumulative oxidation, per cent of dose recovery ([1]; test (septic) group): 72±9.4 per cent of dose
Compound: CC[C@H](N)[13C](=O)O [L-2-aminobutyric[1-^13C] acid]

- Cumulative Per Cent of Dose Exhaled in 3 Hours ([2]; Day 1, CONTROL): 4.3 (± 0.8) Per Cent of Dose
- Cumulative Per Cent of Dose Exhaled in 3 Hours ([2]; Day 1, SEPSIS): 5.7 (± 1.4) Per Cent of Dose
- Cumulative Per Cent of Dose Exhaled in 3 Hours ([2]; Day 2, CONTROL): 8.9 (± 1.3) Per Cent of Dose
- Cumulative Per Cent of Dose Exhaled in 3 Hours ([2]; Day 2, SEPSIS): 22.5 (± 5.3) Per Cent of Dose
- Cumulative Per Cent of Dose Exhaled in 3 Hours ([2]; Day 6, CONTROL): 4.9 (± 0.8) Per Cent of Dose
- Cumulative Per Cent of Dose Exhaled in 3 Hours ([2]; Day 6, SEPSIS): 9.2 (± 6.3) Per Cent of Dose
Compound: CC[C@H](NC(=O)[C@@H]1CCCN1C(=O)CN)[13C](=O)O [GPA, glycyl-prolyl-2-aminobutyric[1-^13C] acid]

Compound: CCO[13C](=O)c1ccc(NC(=O)C(CCCNC(=N)N)NC(=O)C2CCCN2C(=O)CNC(C)=O)cc1 [Substrate III, N-acetyl-glycyl-L-prolyl-L-arginyl-p-aminobenzoic[1-^13C] acid, ethyl ester]
- Product formed, Thrombin (bovine thrombin): 6.6 nmol/min/mL
- Product formed, Plasmin (bovine plasmin): 3.6 nmol/min/mL

Compound: CCO[13C](=O)c1ccc(NC(=O)[C@H](CCCNC(=N)N)NC(=O)[C@@H]2CCCN2C(=O)[C@@H](Cc2ccccc2)NC(C)=O)cc1 [Substrate I, N-acetyl-d-phenylalanyl-L-prolyl-L-arginyl-p-aminobenzoic[1-^13C] acid, ethyl ester]
- Product formed, Thrombin (bovine thrombin): 6.0 nmol/min/mL
- Product formed, Plasmin (bovine plasmin): 1.8 nmol/min/mL

Compound: N[C@@H](CCCN=C([15NH2])[15NH2])C(=O)O [L-arginine[guanidino-^15N2]]
- NOPI2 on Admission ([3]; 2 day average in ICU, rapid recovery, no sepsis, n = 4): 0.3 +/− 0.14 (n = 4)
- NOPI2 on Admission ([3]; 4 day average in ICU, recovery, sepsis treated successfully, n = 4): 2.99 +/− 1.24 (n = 4)
- NOPI2 on Admission ([3]; 7 day average in ICU, death from complications of sepsis and trauma, n = 3): 6.64 +/− 1.92 (n = 3)
- NOPI2 on Admission ([3]; Normal Control, healthy (not admitted), n = 4): 0.2 +/− 0.15 (n = 4)

- Km [4]: 200 µM
Compound: CC[C@H](NC(=O)[C@@H]1CCCN1C(=O)CN)C(=O)O [GPA, glycyl-prolyl-2-aminobutyric[1-^13C] acid] (H-Gly-Pro-[Abu]-OH)

- % Dose metabolized (Aminopeptidase P (APP) [5]; Control, two hour incubation at 37° C.): 22 ± 4 % Dose
- % Dose metabolized (Aminopeptidase P (APP) [5]; Test sample, ARDS): 44 ± 14 % Dose
- % Dose metabolized (Aminopeptidase P (APP) [6]; Control): 5 ± 4 % Dose
- % Dose metabolized (Aminopeptidase P (APP) [6]; Test sample, Sepsis): 28 ± 7 % Dose
Compound: CCOC(=O)[C@@H]1CCCN1C(=O)[C@@H]1CCCN1[13C](=O)CN [Aminopeptidase P Metaprobe, glycyl[1-^13C]-L-prolyl-L-proline, ethyl ester]

Compound: CCO[13C](=O)[C@H](CC)NC(=O)[C@H](CCCCN)NC(=O)[C@H](CC(C)C)NC(=O)[C@@H](N)CC(C)C [Substrate VI, L-leucyl-L-leucyl-L-lysyl-L-2-aminobutyric[1-^13C] acid, ethyl ester]
- Product formed, Thrombin (bovine thrombin): 0.4 nmol/min/mL
- Product formed, Plasmin (bovine plasmin): 8.1 nmol/min/mL
- Percent of Metaprobe Dose Metabolized (plasmin; Control, Day 0): 11 ± 5%
- Percent of Metaprobe Dose Metabolized (plasmin; Septic, Day 2): 14 ± 7%
- Percent of Metaprobe Dose Metabolized (plasmin; Septic, Day 6): 52 ± 17%
- Percent of Metaprobe Dose Metabolized (plasmin; Septic, Day 10): 23 ± 12%

Compound: CCO[13C](=O)c1ccc(NC(=O)[C@H](CCCCN)NC(=O)[C@H](CC(C)C)NC(=O)[C@@H](N)CC(C)C)cc1 [Substrate V, L-leucyl-L-leucyl-L-lysyl-p-aminobenzoic[1-^13C] acid, ethyl ester]
- Product formed, Thrombin (bovine thrombin): 0.3 nmol/min/mL
- Product formed, Plasmin (bovine plasmin): 7.2 nmol/min/mL

- Km [4]: 130 µM
- specific activity of plasma towards substrate (DPPIV; [7]): 29 ± 6 nmol/min/mL
- specific activity of plasma towards substrate (DPPIV; septic, day six): 49 ± 6 nmol/min/mL
- specific activity of plasma towards substrate (DPPIV; septic, day two): 43 ± 7 nmol/min/mL
Compound: NCC(=O)N1CCC[C@H]1C(=O)Nc1ccc([N+](=O)[O-])cc1 [GP4NA, Glycyl-Prolyl-4-nitro-anilide, reference compound] (H-Gly-Pro-pNA)

Compound: CCO[13C](=O)[C@H](CC)NC(=O)[C@H](CCCNC(=N)N)NC(=O)[C@@H]1CCCN1C(=O)[C@@H](Cc1ccccc1)NC(C)=O [Substrate II, N-acetyl-d-phenylalanyl-L-prolyl-L-arginyl-L-2-aminobutyric[1-^13C] acid, ethyl ester]
- Product formed, Thrombin (bovine thrombin): 6.9 nmol/min/mL
- Product formed, Plasmin (bovine plasmin): 2.3 nmol/min/mL

Reference: US6610270B1, “In vivo determination of metabolic function for use in therapy management” (Xanthus Life Sciences, Inc., priority 1998, dated 2003)
